Results from publication PMC9536471 (Biochemistry, 2022).
Values joined by “and” are separate entries in the source; they are usually repeats but may differ in a detail not shown here. Identical values can stand only once. Like-named read-outs stand apart in the source and are kept apart here. One block for each molecule: values may come before it.

Columns and labels:
TcA = target: T1, TcA (Trypanosoma cruzi, UniProt Q4DRC4); conditions: cited from earlier work
T1 sequence (Q4DRC4 1-241): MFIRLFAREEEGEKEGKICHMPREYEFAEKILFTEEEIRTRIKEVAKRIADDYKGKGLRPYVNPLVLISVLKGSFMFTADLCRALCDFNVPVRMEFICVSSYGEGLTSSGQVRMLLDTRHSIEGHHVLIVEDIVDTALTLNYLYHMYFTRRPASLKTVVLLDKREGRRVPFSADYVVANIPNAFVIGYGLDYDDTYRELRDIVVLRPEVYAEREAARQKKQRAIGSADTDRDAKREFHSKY

TcC [1] = target: T2, TcC (Trypanosoma cruzi, UniProt Q4DGA3); assay: Isothermal titration calorimetry; format: binding
T2 sequence (Q4DGA3 1-221): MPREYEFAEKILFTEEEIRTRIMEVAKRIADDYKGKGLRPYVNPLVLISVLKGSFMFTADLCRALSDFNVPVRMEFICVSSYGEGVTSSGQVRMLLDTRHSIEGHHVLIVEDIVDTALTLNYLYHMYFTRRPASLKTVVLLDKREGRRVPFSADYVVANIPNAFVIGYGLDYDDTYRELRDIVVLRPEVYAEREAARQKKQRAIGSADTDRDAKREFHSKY

T. cruzi HGPRT [2] = target: T3, T. cruzi HGPRT (Trypanosoma cruzi, UniProt Q4DGA3); assay: Screening of T. cruzi HGPRT inhibitors; format: biochemical
T3 sequence (Q4DGA3 1-221): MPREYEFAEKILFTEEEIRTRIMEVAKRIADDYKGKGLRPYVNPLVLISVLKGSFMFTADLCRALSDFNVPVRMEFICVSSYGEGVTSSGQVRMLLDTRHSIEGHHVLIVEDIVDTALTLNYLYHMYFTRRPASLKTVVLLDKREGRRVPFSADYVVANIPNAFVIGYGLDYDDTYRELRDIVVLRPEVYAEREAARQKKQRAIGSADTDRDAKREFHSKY

T. cruzi HGPRT [3] = assay: Screening of T. cruzi HGPRT inhibitors; format: biochemical, Trypanosoma cruzi; conditions: selectivity index: Ki of HsHGPRT divided by appKi of T. cruzi HGPRT
HsHGPRT = target: T4, HsHGPRT (Homo sapiens, UniProt P00492); assay: Inhibition analysis of HsHGPRT, IMPDH-coupled assay; format: biochemical
T4 sequence (P00492 1-218): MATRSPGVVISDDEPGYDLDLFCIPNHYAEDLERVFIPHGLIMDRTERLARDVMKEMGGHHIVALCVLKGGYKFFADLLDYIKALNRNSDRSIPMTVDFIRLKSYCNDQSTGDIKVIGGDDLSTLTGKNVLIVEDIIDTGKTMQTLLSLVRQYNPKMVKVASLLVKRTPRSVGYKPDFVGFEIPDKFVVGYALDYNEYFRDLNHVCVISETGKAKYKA

PfHGXPRT = target: T5, PfHGXPRT (Plasmodium falciparum, UniProt P20035); assay: Inhibition analysis of PfHGXPRT, IMPDH-coupled assay; format: biochemical
T5 sequence (P20035 1-231): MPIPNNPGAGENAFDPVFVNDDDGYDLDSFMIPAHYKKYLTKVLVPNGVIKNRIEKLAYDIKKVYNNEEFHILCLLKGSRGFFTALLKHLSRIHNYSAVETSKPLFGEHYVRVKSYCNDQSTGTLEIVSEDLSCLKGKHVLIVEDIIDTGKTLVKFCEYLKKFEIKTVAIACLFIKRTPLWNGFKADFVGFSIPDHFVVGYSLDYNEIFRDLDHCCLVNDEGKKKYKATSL

TcC [4] = target: T2, TcC; assay: Product inhibition studies of TcC; format: biochemical
[5] = substrate: Nc1nc2nc[nH]c2c(=O)[nH]1; assay: Steady-state kinetics of TcC, biosynthetic; format: biochemical, Trypanosoma cruzi; conditions: other: biosynthetic reaction, pH 8.3
[6] = substrate: Oc1ncnc2[nH]ncc12; assay: Steady-state kinetics of TcC, biosynthetic; format: biochemical, Trypanosoma cruzi; conditions: other: biosynthetic reaction, pH 8.3
[7] = substrate: O=c1[nH]cnc2nc[nH]c12; assay: purified protein, by the assay type; conditions: other: biosynthetic reaction, pH 8.3
[8] = substrate: Nc1nc2nc[nH]c2c(=O)[nH]1; assay: Steady-state kinetics of TcA, biosynthetic; format: biochemical, Trypanosoma cruzi; conditions: other: biosynthetic reaction, pH 8.3
[9] = HPP-MP biosynthesis, fixed PRPP (1 mM), Lineweaver–Burk plots
[10] = GMP biosynthesis, variable PRPP (20–215 μM), fixed Gua (70 μM)
[11] = IMP biosynthesis, variable PRPP (20–215 μM), fixed Hx (60 μM)

Molecule: Oc1ncnc2[nH]ncc12 [HPP, 4-hydroxypyrazolo(3,4-d)pyrimidine, reference compound]
Km (TcA; [9]): 710 ± 130 µM | kcat (TcA; [9]): 0.34 ± 0.03 ^c^, ^d s^–1

binding to free TcC enzyme (TcC [1]; ligand concentrations 500- and 900-fold higher than Km): could not be detected
Molecule: O=c1[nH]cnc2nc[nH]c12 [Hx, hypoxanthine]

Molecule: CN(Cc1c[nH]c2c(=O)[nH]cnc12)[C@H](CO)CCP(=O)(O)O.N.N [Compound 4]
Ki (T. cruzi HGPRT [2]): 1440 ± 30 nM | SI (T. cruzi HGPRT [3]): 3.2 | Ki (HsHGPRT): 4600 ± 70 nM | Ki (PfHGXPRT): 108 ± 30 nM

Ki (TcC [4]): 800 ± 100 nM | Kd (TcC [1]): 142000 ± 1000 nM | ΔG° (TcC [1]; apo TcC, 25 °C, pH 8.0): –5247 ± 5 cal mol^–1 | ΔH° (TcC [1]; apo TcC, 25 °C, pH 8.0): 5160 ± 450 cal mol^–1 | –TΔS° (TcC [1]; apo TcC, 25 °C, pH 8.0): –10,410 ± 450 cal mol^–1 | Ka (TcC [1]; association constant, apo TcC, 25 °C, pH 8.0): 7070 ± 60 M^–1 | N (TcC [1]; number of binding sites per monomer, apo TcC, 25 °C, pH 8.0): 1.2 ± 0.2
Molecule: O=P(O)(O)OC[C@H]1O[C@H](OP(=O)(O)OP(=O)(O)O)[C@H](O)[C@@H]1O [PRPP, 5-phospho-α-D-ribose 1-diphosphate]
Km (TcA; [10]): 32 ± 5 µM | kcat (TcA; [10]): 32 ^b s^–1 | Km (TcA; [11]): 31 ± 5 µM | kcat (TcA; [11]): 23 ^b s^–1

B1: TcC (Trypanosoma cruzi strain CL Brener) (protein)
chain: MPREYEFAEKILFTEEEIRTRIMEVAKRIADDYKGKGLRPYVNPLVLISVLKGSFMFTADLCRALSDFNVPVRMEFICVSSYGEGVTSSGQVRMLLDTRHSIEGHHVLIVEDIVDTALTLNYLYHMYFTRRPASLKTVVLLDKREGRRVPFSADYVVANIPNAFVIGYGLDYDDTYRELRDIVVLRPEVYAEREAARQKKQRAIGSADTDRDAKREFHSKY
kcat/Km [5]: 1 × 10^5 M^–1 s^–1 and 2.5 × 10^6 M^–1 s^–1 | kcat/Km [6]: 10^3 M^–1 s^–1 | kcat/Km ([7]; TcC): 1 × 10^5 M^–1 s^–1 and 2.1 × 10^6 M^–1 s^–1

B2: TcA (Trypanosoma cruzi strain CL Brener) (protein)
chain: MFIRLFAREEEGEKEGKICHMPREYEFAEKILFTEEEIRTRIKEVAKRIADDYKGKGLRPYVNPLVLISVLKGSFMFTADLCRALCDFNVPVRMEFICVSSYGEGLTSSGQVRMLLDTRHSIEGHHVLIVEDIVDTALTLNYLYHMYFTRRPASLKTVVLLDKREGRRVPFSADYVVANIPNAFVIGYGLDYDDTYRELRDIVVLRPEVYAEREAARQKKQRAIGSADTDRDAKREFHSKY
kcat/Km [8]: 1 × 10^5 M^–1 s^–1 and 2.5 × 10^6 M^–1 s^–1 | kcat/Km ([7]; TcA): 1 × 10^5 M^–1 s^–1
